Tests used:
[1] = test system: Radical scavenging activity; test: Hydroxyl radical scavenging activity at 2 mM; type: functional
[2] = test system: Radical scavenging activity; test: Hydroxyl radical scavenging activity; type: functional

**Q.** With `CC(C)=CC/C=C(\C)[C@H]1CC[C@]2(C)[C@@H]1[C@H](O)C[C@@H]1[C@@]3(C)CC[C@H](O[C@@H]4O[C@H](CO)[C@@H](O)[C@H](O)[C@H]4O[C@@H]4O[C@H](CO)[C@@H](O)[C@H](O)[C@H]4O)C(C)(C)[C@@H]3CC[C@]12C` [GINSENOSIDE RG5] as the molecule, how does the inhibition [1] read?
**A.** 16%

**Q.** And the IC50 [2]?
**A.** 150 µM

**Q.** How did the inhibition [1] turn out when `CC(C)=CCC[C@](C)(O)[C@H]1CC[C@]2(C)[C@@H]1[C@H](O)C[C@@H]1[C@@]3(C)CC[C@H](O[C@@H]4O[C@H](CO)[C@@H](O)[C@H](O)[C@H]4O[C@@H]4O[C@H](CO)[C@@H](O)[C@H](O)[C@H]4O)C(C)(C)[C@@H]3CC[C@]12C` was run?
**A.** 20%

**Q.** What about the IC50 [2] of the same molecule?
**A.** 440 µM

**Q.** Which inhibition [1] does the source give for `CC(C)=CCC[C@@](C)(O)[C@H]1CC[C@]2(C)[C@@H]1[C@H](O)C[C@@H]1[C@@]3(C)CC[C@H](O[C@@H]4O[C@H](CO)[C@@H](O)[C@H](O)[C@H]4O[C@@H]4O[C@H](CO)[C@@H](O)[C@H](O)[C@H]4O)C(C)(C)[C@@H]3CC[C@]12C` here?
**A.** 72%

**Q.** With `C=C(CCC=C(C)C)[C@H]1CC[C@]2(C)[C@@H]1[C@H](O)C[C@@H]1[C@@]3(C)CC[C@H](O[C@@H]4O[C@H](CO)[C@@H](O)[C@H](O)[C@H]4O[C@@H]4O[C@H](CO)[C@@H](O)[C@H](O)[C@H]4O)C(C)(C)[C@@H]3CC[C@]12C` as the molecule, how does the inhibition [1] read?
**A.** 68%

**Q.** With `O=C(O[C@@H]1Cc2c(O)cc(O)cc2O[C@@H]1c1cc(O)c(O)c(O)c1)c1cc(O)c(O)c(O)c1` [EPIGALOCATECHIN GALLATE] as the molecule, how does the IC50 [2] read?
**A.** 3760 µM

From ChEMBL document CHEMBL1146894, “Stereospecificity in hydroxyl radical scavenging activities of four ginsenosides produced by heat processing” (Bioorg Med Chem Lett, 2006)
